The values that follow come from US9533987B2, “Heterocyclic derivates” (KALVISTA PHARMACEUTICALS LIMITED, priority 2013, dated 2017).

In general, pIC50 refers to the negative decadic logarithm of the IC50, by convention in mol/L. For orientation: IC50 means the point on the concentration scale where inhibition reaches its midpoint. A low value points to higher potency.

pIC50: −log10 of the molar value.

One series deals with diabetic rats. Conditions: cited from earlier work.
For series [1] the following is noted: in vivo; cited from earlier work.
The next series has as its target Human plasma kallikrein (Homo sapiens (Human), UniProt P03952). The series can be described thus: Determination of the IC50 for plasma kallikrein (fluorogenic substrate H-DPro-Phe-Arg-AFC). Type of series: biochemical. Conditions: 37° C., read-out: IC50 (human PKaI). The procedure: Determination of the IC50 for Plasma Kallikrein
Human plasma kallikrein (Protogen) was incubated at 37° C. with the fluorogenic substrate H-DPro-Phe-Arg-AFC and various concentrations of the test compound. Residual enzyme activity (initial rate of reaction) was determined by measuring the change in […] at 410 nm and the IC50 value for the test compound was determined.

Another series deals with Human KLK1 (Homo sapiens (Human), UniProt P06870). The series can be described thus: Determination of the IC50 for KLK1 (fluorogenic substrate H-DVal-Leu-Arg-AFC). As to conditions: 37° C. Type of series: biochemical. The procedure:
Determination of the IC50 for KLK1
Human KLK1 (Callbiochem) was incubated at 37° C. with the fluorogenic substrate H-DVal-Leu-Arg-AFC and various concentrations of the test compound. Residual enzyme activity (initial rate of reaction) was determined by measuring the change in […] at 410 nm and the IC50 value for the test compound was determined.

Another series concerns the target Factor XIIa (Homo sapiens (Human), UniProt P00748). The series can be described thus: Determination of enzyme selectivity, Factor XIIa. Type of series: biochemical. Conditions: substrate at Km concentration.
For the next series, the target named is thrombin (Homo sapiens (Human), UniProt P00734). The series can be described thus: Determination of enzyme selectivity, thrombin. Type of series: biochemical. Conditions: substrate at Km concentration. On the procedure: (§1) Determination of Enzyme Selectivity
(§2) Human serine protease enzymes plasmin, thrombin, trypsin, Factor Xa and Factor XIIa were assayed for enzymatic activity using an appropriate fluorogenic substrate. Protease activity was measured by monitoring the accumulation of liberated fluorescence from the substrate over 5 minutes. The linear rate of fluorescence increase per minute was expressed as percentage (%) activity. The Km for the cleavage of each substrate was determined by standard transformation of the Michaelis-Menten equation.

A further series deals with trypsin. The series can be described thus: Determination of enzyme selectivity, trypsin. Type of series: biochemical, human. Conditions: substrate at Km concentration. The procedure:
as §1, §2

A further series has as its target plasmin (Homo sapiens (Human), UniProt P00747). The series can be described thus: Determination of enzyme selectivity, plasmin. Conditions: substrate at Km concentration. Type of series: biochemical. The procedure: as §1, §2
The conditions of series [2]: in vivo; cited from earlier work. This is another data set of the same source.

Sequence of Human plasma kallikrein (P03952 391-638): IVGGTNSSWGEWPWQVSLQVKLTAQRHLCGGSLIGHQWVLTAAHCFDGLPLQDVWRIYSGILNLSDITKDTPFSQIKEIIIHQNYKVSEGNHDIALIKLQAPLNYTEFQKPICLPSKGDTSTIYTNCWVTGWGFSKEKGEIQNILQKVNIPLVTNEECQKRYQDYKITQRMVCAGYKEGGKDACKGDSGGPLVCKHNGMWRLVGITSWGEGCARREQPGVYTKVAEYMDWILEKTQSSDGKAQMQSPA
Sequence of Human plasma kallikrein (P03952 20-390 partner): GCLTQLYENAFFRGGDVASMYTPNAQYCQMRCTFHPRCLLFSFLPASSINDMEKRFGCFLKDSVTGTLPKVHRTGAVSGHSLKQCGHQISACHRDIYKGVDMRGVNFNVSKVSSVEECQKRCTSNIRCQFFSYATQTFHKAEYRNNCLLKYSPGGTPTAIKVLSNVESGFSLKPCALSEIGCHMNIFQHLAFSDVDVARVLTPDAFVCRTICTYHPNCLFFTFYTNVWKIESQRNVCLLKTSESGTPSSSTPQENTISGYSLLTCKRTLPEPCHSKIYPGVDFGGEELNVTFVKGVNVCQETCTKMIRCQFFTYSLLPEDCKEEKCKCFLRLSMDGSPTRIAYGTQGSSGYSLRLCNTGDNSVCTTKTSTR
Sequence of plasmin (P00747 581-810): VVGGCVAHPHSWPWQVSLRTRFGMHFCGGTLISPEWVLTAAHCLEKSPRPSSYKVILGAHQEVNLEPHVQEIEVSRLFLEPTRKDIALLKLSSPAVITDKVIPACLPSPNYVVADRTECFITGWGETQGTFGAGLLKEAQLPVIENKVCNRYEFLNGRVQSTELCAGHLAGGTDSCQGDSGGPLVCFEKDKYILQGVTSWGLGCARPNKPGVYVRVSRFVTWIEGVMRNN
Sequence of plasmin (P00747 97-580 partner): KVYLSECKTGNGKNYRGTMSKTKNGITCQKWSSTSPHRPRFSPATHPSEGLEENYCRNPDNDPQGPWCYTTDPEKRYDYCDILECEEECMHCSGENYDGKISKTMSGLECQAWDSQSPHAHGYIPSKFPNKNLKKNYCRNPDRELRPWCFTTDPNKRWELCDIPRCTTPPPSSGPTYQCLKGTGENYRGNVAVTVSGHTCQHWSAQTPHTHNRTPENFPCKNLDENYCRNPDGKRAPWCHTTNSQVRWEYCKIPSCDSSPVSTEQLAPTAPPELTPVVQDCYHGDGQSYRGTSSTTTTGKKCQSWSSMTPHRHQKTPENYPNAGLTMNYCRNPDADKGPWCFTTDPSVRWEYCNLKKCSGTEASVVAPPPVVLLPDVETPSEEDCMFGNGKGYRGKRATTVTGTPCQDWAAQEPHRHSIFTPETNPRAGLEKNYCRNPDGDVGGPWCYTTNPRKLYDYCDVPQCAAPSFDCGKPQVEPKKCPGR
Sequence of Factor XIIa (P00748 373-615): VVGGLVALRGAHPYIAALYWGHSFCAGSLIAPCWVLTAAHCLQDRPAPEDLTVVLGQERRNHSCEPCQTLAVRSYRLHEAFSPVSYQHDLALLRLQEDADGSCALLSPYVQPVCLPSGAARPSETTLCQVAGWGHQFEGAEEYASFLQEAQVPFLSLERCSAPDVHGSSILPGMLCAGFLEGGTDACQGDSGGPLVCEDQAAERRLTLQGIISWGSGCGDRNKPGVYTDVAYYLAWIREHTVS
Sequence of Human KLK1 (P06870 25-262): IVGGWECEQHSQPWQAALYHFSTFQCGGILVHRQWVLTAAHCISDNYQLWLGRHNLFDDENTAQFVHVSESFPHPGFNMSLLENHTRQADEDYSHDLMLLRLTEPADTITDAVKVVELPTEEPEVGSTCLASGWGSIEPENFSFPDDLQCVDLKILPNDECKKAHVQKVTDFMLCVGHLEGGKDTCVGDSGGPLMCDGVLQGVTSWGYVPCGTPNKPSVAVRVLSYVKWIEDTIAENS

With `N=C(N)c1ccc(CNC(=O)c2cnn(Cc3ccccc3)c2)cc1` [ASP-440], the “effect on retinal vascular permeability and retinal blood flow abnormalities” value with diabetic rats was “ameliorated both retinal vascular permeability and retinal blood flow abnormalities”. For the same compound, the oral availability result in [1] is listed as “poor oral availability”.

Turning to `Cc1cc(C(=O)NCc2ccc3c(N)nccc3c2)c(C)n1Cc1csc(-c2ccccc2)n1` [Example 1, 2,5-Dimethyl-1-(2-phenyl-thiazol-4-ylmethyl)-1H-pyrrole-3-carboxylic acid (1-amino-isoquinolin-6-ylmethyl)-amide], the negative logarithm of the IC50 (pIC50) is 7.26 at Human plasma kallikrein and < 5.00 at Human KLK1. Besides, the IC50 on Factor XIIa is > 10000 nM; at thrombin, > 40000 nM; on trypsin it was > 40000 nM; against plasmin, > 40000 nM.

For Ecallantide, in [2], the anaphylactic reactions result is on record as “anaphylactic reactions”.
